Results: ChEMBL document CHEMBL5512671, “Structure-Based Optimization of Novel Sterol 24-C-Methyltransferase Inhibitors for the Treatment of Candida albicans Infections” (J Med Chem, 2024)
In brackets after ≈: the same amount, converted by molar mass.

Key:
Candida albicans [1] = experiment: Antifungal activity against Candida albicans SC5314 assessed as inhibition of fungal growth incubated for 24 hrs by CLSI protocol based broth microdilution method; assay type: functional
Candida albicans [2] = experiment: Antifungal activity against Candida albicans SC5314 assessed as inhibition of hyphae growth incubated for 24 hrs by CLSI protocol based broth microdilution method; assay type: functional

Cc1c(-n2c(-c3ccc(C#N)cc3)cs/c2=N\c2ccccc2)c(=O)n(-c2ccccc2)n1C
MIC80 (Candida albicans [1]): > 128 µg/mL | MIC50 (Candida albicans [2]): > 128 µg/mL

COc1cccc(-c2cs/c(=N\c3ccccc3)n2-c2c(C)n(C)n(-c3ccccc3)c2=O)c1
MIC80 (Candida albicans [1]): > 128 µg/mL | MIC50 (Candida albicans [2]): > 128 µg/mL

Cc1c(-n2c(-c3ccc(Cl)cc3)cs/c2=N\c2ccccc2)c(=O)n(-c2ccccc2)n1C
MIC80 (Candida albicans [1]): > 128 µg/mL | MIC50 (Candida albicans [2]): 4 µg/mL (≈ 8.46 µM)

Cc1c(-n2c(-c3cc4ccccc4oc3=O)cs/c2=N\c2ccccc2)c(=O)n(-c2ccccc2)n1C
MIC80 (Candida albicans [1]): > 128 µg/mL | MIC50 (Candida albicans [2]): > 128 µg/mL

Cc1c(-n2c(-c3ccccc3Cl)cs/c2=N\c2ccccc2)c(=O)n(-c2ccccc2)n1C
MIC80 (Candida albicans [1]): > 128 µg/mL | MIC50 (Candida albicans [2]): > 128 µg/mL

Cc1c(-n2c(-c3ccc(-c4ccccc4)cc3)cs/c2=N\c2ccccc2)c(=O)n(-c2ccccc2)n1C
MIC80 (Candida albicans [1]): > 128 µg/mL | MIC50 (Candida albicans [2]): > 128 µg/mL

COc1ccc(/N=c2\scc(-c3ccc4ccccc4c3)n2-c2c(C)n(C)n(-c3ccccc3)c2=O)cc1
MIC80 (Candida albicans [1]): > 128 µg/mL | MIC50 (Candida albicans [2]): 4 µg/mL (≈ 7.71 µM)

Cc1c(-n2c(C34CC5CC(CC(C5)C3)C4)cs/c2=N\c2ccccc2)c(=O)n(-c2ccccc2)n1C
MIC80 (Candida albicans [1]): > 128 µg/mL | MIC50 (Candida albicans [2]): > 128 µg/mL

Cc1c(-n2c(-c3ccc(C(F)(F)F)cc3)cs/c2=N\c2ccccc2)c(=O)n(-c2ccccc2)n1C
MIC80 (Candida albicans [1]): > 128 µg/mL | MIC50 (Candida albicans [2]): 4 µg/mL (≈ 7.9 µM)

COc1ccc2cc(-c3cs/c(=N\c4ccccc4)n3-c3c(C)n(C)n(-c4ccccc4)c3=O)ccc2c1
MIC80 (Candida albicans [1]): > 128 µg/mL | MIC50 (Candida albicans [2]): > 128 µg/mL

Cc1c(-n2c(-c3ccc(O)cc3)cs/c2=N\c2ccc(Br)cc2)c(=O)n(-c2ccccc2)n1C
MIC80 (Candida albicans [1]): > 128 µg/mL | MIC50 (Candida albicans [2]): > 128 µg/mL

Cc1ccc(-c2cs/c(=N\c3ccccc3)n2-c2c(C)n(C)n(-c3ccccc3)c2=O)cc1
MIC80 (Candida albicans [1]): > 128 µg/mL | MIC50 (Candida albicans [2]): 4 µg/mL (≈ 8.84 µM)

C#CCOc1ccc(-c2cs/c(=N\c3ccccc3)n2-c2c(C)n(C)n(-c3ccccc3)c2=O)cc1
MIC80 (Candida albicans [1]): > 128 µg/mL | MIC50 (Candida albicans [2]): > 128 µg/mL

Cc1c(-n2c(-c3cccc(F)c3)cs/c2=N\c2ccccc2)c(=O)n(-c2ccccc2)n1C
MIC80 (Candida albicans [1]): > 128 µg/mL | MIC50 (Candida albicans [2]): > 128 µg/mL

CC(=O)c1cs/c(=N\c2ccccc2)n1-c1c(C)n(C)n(-c2ccccc2)c1=O
MIC80 (Candida albicans [1]): > 128 µg/mL | MIC50 (Candida albicans [2]): > 128 µg/mL

Cc1c(-n2c(-c3ccc(Cl)cc3Cl)cs/c2=N\c2ccccc2)c(=O)n(-c2ccccc2)n1C
MIC80 (Candida albicans [1]): > 128 µg/mL | MIC50 (Candida albicans [2]): > 128 µg/mL

Cc1c(-n2c(-c3ccc(OC(F)(F)F)cc3)cs/c2=N\c2ccccc2)c(=O)n(-c2ccccc2)n1C
MIC80 (Candida albicans [1]): > 128 µg/mL | MIC50 (Candida albicans [2]): 8 µg/mL (≈ 15.3 µM)

Cc1c(-n2c(-c3ccc(Br)cc3)cs/c2=N\c2ccc(C(F)(F)F)cc2)c(=O)n(-c2ccccc2)n1C
MIC80 (Candida albicans [1]): > 128 µg/mL | MIC50 (Candida albicans [2]): 8 µg/mL (≈ 13.7 µM)

Cc1c(-n2c(-c3ccc(Cl)cc3Cl)cs/c2=N\c2ccc(Br)cc2)c(=O)n(-c2ccccc2)n1C
MIC80 (Candida albicans [1]): > 128 µg/mL | MIC50 (Candida albicans [2]): > 128 µg/mL

COc1cc(-c2cs/c(=N\c3ccccc3)n2-c2c(C)n(C)n(-c3ccccc3)c2=O)cc(OC)c1OC
MIC80 (Candida albicans [1]): > 128 µg/mL | MIC50 (Candida albicans [2]): > 128 µg/mL

Cc1c(-n2c(-c3ccncc3)cs/c2=N\c2ccccc2)c(=O)n(-c2ccccc2)n1C
MIC80 (Candida albicans [1]): > 128 µg/mL | MIC50 (Candida albicans [2]): > 128 µg/mL

Cc1c(-n2c(-c3ccc(Cl)cc3)cs/c2=N\c2ccc(Br)cc2)c(=O)n(-c2ccccc2)n1C
MIC80 (Candida albicans [1]): > 128 µg/mL | MIC50 (Candida albicans [2]): 8 µg/mL (≈ 14.5 µM)

Cc1c(-n2c(-c3cccc(Cl)c3)cs/c2=N\c2ccccc2)c(=O)n(-c2ccccc2)n1C
MIC80 (Candida albicans [1]): > 128 µg/mL | MIC50 (Candida albicans [2]): > 128 µg/mL

Cc1c(-n2c(-c3cccnc3)cs/c2=N\c2ccc(Br)cc2)c(=O)n(-c2ccccc2)n1C
MIC80 (Candida albicans [1]): > 128 µg/mL | MIC50 (Candida albicans [2]): > 128 µg/mL

Cc1c(-n2c(-c3ccccn3)cs/c2=N\c2ccccc2)c(=O)n(-c2ccccc2)n1C
MIC80 (Candida albicans [1]): > 128 µg/mL | MIC50 (Candida albicans [2]): > 128 µg/mL

C=CC(=O)Nc1cccc(-c2cs/c(=N\c3ccccc3)n2-c2c(C)n(C)n(-c3ccccc3)c2=O)c1
MIC80 (Candida albicans [1]): > 128 µg/mL | MIC50 (Candida albicans [2]): > 128 µg/mL

Cc1c(-n2c(-c3ccc(O)cc3)cs/c2=N\c2ccccc2)c(=O)n(-c2ccccc2)n1C
MIC80 (Candida albicans [1]): > 128 µg/mL | MIC50 (Candida albicans [2]): > 128 µg/mL

Cc1c(-n2c(C3CCN(C(=O)OC(C)(C)C)CC3)cs/c2=N\c2ccccc2)c(=O)n(-c2ccccc2)n1C
MIC80 (Candida albicans [1]): > 128 µg/mL | MIC50 (Candida albicans [2]): > 128 µg/mL
